Assay results from publication PMC8300687, “A Fine-Tuned Lipophilicity/Hydrophilicity Ratio Governs Antibacterial Potency and Selectivity of Bifurcated Halogen Bond-Forming NBTIs” (Antibiotics, 2021).
In brackets after ≈: the same amount, converted by molar mass. Like-named read-outs stand apart in the source and are kept apart here.

Tests used:
S. aureus Topo IV = target: T1, S. aureus Topo IV (Staphylococcus aureus, UniProt Q2FYS4); assay: biochemical; conditions: mean of two to four measurements; read-out: Topoisomerase IV IC50 S. aureus
T1 construct: purchased Inspiralis (Norwich, UK)
T1 sequence (Q2FYS5 whole entry): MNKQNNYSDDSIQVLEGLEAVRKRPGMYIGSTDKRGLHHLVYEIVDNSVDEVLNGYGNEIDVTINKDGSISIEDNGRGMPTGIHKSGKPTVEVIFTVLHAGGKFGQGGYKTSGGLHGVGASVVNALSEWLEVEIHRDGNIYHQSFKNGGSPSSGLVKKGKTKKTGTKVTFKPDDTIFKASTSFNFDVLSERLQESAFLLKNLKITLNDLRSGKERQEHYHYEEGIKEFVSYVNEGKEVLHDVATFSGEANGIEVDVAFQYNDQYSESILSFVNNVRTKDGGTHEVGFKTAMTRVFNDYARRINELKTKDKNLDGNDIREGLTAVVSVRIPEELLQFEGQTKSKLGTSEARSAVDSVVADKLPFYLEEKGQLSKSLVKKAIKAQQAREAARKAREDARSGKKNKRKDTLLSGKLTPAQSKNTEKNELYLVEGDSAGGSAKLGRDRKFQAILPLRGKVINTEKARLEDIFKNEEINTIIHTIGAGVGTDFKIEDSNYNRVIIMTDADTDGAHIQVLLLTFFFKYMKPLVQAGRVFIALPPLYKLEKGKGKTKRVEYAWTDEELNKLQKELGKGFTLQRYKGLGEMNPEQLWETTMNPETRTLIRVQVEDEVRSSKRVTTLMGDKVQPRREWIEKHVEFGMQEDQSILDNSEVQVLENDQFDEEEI
T1 sequence (Q2FYS4 whole entry): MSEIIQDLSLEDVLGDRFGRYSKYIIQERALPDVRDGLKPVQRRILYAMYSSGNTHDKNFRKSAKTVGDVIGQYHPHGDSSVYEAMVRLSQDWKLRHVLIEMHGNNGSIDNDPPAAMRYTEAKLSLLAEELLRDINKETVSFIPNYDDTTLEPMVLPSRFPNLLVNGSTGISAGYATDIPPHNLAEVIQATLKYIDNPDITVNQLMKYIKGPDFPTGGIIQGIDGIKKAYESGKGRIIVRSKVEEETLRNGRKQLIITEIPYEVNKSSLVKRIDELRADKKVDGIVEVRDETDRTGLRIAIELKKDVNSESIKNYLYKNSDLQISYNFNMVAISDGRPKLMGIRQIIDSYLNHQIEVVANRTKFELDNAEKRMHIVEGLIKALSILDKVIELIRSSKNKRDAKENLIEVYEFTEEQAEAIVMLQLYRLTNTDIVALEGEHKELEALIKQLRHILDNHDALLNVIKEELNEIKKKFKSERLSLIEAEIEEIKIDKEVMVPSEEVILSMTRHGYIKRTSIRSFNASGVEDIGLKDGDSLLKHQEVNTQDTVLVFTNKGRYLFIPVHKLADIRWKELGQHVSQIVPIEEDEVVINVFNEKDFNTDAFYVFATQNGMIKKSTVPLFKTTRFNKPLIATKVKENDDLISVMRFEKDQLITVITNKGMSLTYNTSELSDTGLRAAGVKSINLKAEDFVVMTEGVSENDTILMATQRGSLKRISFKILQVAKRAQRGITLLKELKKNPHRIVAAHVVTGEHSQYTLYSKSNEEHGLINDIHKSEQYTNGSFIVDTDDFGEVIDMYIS
Procedure: (§1) A Topo IV Relaxation High Throughput Plate assay kit, purchased from Inspiralis (Norwich. UK) was used to determine IC50 values of compounds on S. aureus and E. coli. […] Biotinylated oligonucleotide in wash buffer was immobilized onto the wells, and the excess oligonucleotide was washed off with wash buffer and ultrapure water. 1.5 U of S. aureus or E. coli […] enzyme was incubated together with 0.75 μg of supercoiled pNO1 plasmid as a substrate in the presence of 3 μL inhibitor solution in 10% DMSO and 0.008% Tween 20 at 37 °C for 30 min in a final reaction volume of 30 μL in dilution buffer (50 mM Tris-HCl (pH 7.5), 1 mM DTT, 1 mM EDTA, 40% (w/v) glycerol for S. aureus and 40 mM HEPES, KOH (pH 7.6), 100 mM potassium glutamate, 1 mM DTT, 1 mM EDTA, and 40% (v/v) glycerol for E. coli). The reactions were stopped by adding the TF buffer (50 mM NaOAc (pH 4.7), 50 mM NaCl, and 50 mM MgCl2) to allow the triplex formation (biotin-oligonucleotide-plasmid) for additional 30 min. Afterward, the unbound plasmid was washed off using TF buffer, and the solution of Promega Diamond dye in T10 buffer (10 mM Tris-HCl (pH 8.0), 1 mM EDTA) was added. […] IC50 value represents the mean of two to four independent measurements.

E. coli (ATCC 25922) = assay: MIC broth microdilution, E. coli ATCC 25922; format: cell-based
Procedure: (§2) Antimicrobial testing was carried out by the broth microdilution method in 96-well plate format following the Clinical and Laboratory Standards Institute (CLSI) guidelines and European Committee on Antimicrobial Susceptibility Testing (EUCAST) recommendations. Bacterial suspension of specific bacterial strain equivalent to 0.5 McFarland turbidity standard was diluted with cation-adjusted Mueller Hinton broth with TES (Thermo Fisher Diagnostic, Landsmeer, The Netherlands), to obtain a final inoculum of 10^5 CFU/mL. Compounds dissolved in DMSO and inoculum were mixed together and incubated for 18–20 h at 35 °C. Suspensions of Mycobacterium sp. were prepared into a tube of Middelbrook 7H9 broth supplemented with 5% OADC (Thermo Scientific, Trek Diagnostic Systems, West Sussex, UK) and incubated for at least 10 days. After incubation the minimal inhibitory concentration (MIC) values were determined by visual inspection as the lowest dilution of compounds showing no turbidity. Tetracycline was used as a positive control on every assay plate.

E. coli Topo IV = target: T2, E. coli Topo IV (Escherichia coli, UniProt P0AFI2); assay: Topo IV Relaxation High Throughput Plate assay, E. coli; format: biochemical; conditions: for LE Topo IV E. coli: LE = (1.37/HA) × pIC50
T2 construct: purchased Inspiralis (Norwich, UK)
T2 sequence (P0AFI2 whole entry): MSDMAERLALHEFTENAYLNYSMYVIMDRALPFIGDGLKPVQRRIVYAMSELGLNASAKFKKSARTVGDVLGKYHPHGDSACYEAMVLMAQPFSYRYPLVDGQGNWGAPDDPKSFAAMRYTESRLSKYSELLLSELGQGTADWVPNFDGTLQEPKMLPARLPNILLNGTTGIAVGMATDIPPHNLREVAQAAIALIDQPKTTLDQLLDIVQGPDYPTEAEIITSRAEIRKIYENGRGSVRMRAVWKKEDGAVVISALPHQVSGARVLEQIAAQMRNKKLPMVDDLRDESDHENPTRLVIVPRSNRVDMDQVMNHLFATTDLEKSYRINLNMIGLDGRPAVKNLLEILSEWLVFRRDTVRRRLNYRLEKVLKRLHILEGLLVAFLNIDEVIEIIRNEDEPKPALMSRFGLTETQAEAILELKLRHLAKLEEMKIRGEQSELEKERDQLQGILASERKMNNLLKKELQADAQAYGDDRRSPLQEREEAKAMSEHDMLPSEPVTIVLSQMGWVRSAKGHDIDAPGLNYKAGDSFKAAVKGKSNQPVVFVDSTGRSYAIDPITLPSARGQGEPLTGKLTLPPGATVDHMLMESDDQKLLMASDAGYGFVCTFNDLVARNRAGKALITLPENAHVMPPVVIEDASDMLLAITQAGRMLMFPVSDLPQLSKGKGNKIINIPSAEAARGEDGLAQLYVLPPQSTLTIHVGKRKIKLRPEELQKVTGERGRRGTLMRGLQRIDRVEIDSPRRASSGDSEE
T2 sequence (P20083 whole entry, further chain): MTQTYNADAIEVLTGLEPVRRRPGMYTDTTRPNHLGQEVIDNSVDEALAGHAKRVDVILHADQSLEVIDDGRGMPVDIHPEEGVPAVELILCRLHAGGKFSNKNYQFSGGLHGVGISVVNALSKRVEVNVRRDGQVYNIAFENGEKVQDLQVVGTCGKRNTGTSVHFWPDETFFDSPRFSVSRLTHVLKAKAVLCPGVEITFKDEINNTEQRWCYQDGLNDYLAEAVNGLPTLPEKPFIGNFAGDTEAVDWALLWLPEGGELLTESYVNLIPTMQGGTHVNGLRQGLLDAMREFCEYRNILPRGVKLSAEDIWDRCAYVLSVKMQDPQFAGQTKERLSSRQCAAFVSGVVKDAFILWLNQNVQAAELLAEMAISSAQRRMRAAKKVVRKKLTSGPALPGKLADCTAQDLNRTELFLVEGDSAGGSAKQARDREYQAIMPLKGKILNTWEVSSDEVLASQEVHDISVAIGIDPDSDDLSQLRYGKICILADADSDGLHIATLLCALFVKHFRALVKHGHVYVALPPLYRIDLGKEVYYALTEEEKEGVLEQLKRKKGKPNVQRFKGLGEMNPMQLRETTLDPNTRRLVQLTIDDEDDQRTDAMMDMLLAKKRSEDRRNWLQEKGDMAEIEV
Procedure: as §1

Human topoisomerase IIα = target: T3, Human topoisomerase IIα (Homo sapiens, UniProt P11388); assay: Human topoisomerase II Alpha Relaxation High Throughput Plate assay; format: biochemical; conditions: 0.5 h; residual activity of the enzyme at compound concentration 10 μM, mean ± SD; read-out: Human Topo II (% RA)
T3 construct: purchased Inspiralis (Norwich, UK)
T3 sequence (P11388 whole entry): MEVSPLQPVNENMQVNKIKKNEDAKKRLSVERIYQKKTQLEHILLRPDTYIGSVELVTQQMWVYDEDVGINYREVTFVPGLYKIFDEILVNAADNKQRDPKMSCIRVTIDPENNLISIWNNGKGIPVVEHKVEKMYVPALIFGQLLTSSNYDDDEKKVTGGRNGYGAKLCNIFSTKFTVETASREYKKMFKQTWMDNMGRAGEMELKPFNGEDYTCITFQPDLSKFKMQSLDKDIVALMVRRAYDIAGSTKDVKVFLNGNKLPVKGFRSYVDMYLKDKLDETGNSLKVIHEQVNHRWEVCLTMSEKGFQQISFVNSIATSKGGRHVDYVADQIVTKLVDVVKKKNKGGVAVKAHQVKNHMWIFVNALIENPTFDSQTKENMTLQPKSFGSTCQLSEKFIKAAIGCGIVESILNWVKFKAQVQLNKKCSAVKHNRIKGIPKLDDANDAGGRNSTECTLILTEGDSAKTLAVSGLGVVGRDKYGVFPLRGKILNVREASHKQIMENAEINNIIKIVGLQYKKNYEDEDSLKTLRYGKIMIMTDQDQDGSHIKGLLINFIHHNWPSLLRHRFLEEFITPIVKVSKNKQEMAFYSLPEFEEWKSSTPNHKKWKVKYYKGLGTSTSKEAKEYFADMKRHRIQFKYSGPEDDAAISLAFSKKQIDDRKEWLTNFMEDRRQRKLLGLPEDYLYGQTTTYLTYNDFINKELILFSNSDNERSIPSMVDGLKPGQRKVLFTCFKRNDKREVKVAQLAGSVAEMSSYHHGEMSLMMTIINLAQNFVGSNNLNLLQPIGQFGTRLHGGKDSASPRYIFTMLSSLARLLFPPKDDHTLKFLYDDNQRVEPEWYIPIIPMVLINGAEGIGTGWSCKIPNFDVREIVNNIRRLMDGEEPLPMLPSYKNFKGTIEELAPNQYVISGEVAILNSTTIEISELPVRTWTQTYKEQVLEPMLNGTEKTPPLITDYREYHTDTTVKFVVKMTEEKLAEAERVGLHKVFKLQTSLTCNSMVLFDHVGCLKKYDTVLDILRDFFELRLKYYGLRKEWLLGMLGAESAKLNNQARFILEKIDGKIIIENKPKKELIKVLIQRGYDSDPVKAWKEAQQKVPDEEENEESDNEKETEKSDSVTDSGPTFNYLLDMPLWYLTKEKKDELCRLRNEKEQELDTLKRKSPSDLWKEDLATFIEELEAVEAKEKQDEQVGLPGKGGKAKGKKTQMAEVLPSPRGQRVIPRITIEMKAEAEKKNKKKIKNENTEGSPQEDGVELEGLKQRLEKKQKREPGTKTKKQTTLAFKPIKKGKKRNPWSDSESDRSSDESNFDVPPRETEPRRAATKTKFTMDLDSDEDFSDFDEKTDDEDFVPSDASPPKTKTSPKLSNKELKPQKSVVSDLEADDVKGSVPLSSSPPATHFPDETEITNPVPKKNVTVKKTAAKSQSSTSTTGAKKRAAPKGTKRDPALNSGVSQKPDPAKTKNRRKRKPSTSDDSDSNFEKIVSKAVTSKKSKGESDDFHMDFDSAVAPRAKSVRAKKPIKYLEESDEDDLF
Procedure: A Human topoisomerase II Alpha Relaxation High Throughput Plate assay kit, purchased from Inspiralis (Norwich, UK) was used to evaluate the selectivity of compounds for the bacterial enzymes over the homologous human topoisomerase II. […] Biotinylated oligonucleotide in wash buffer was immobilized onto the wells and the excess oligonucleotide was washed off with wash buffer. […] The reactions were stopped by adding the TF buffer (50 mM NaOAc (pH 4.7), 50 mM NaCl, and 50 mM MgCl2) to allow the triplex formation (biotin-oligonucleotide-plasmid) for additional 30 min. Afterward, the unbound plasmid was washed off using TF buffer, and the solution of Promega Diamond dye in T10 buffer (10 mM Tris-HCl (pH 8.0), 1 mM EDTA) was added. […] Screening was performed at inhibitor concentrations of 10 μM. Raw data were converted to mean ± SD percentage of residual activity of the enzyme obtained by two independent measurements.

MRSA (QA-11.2) = assay: MIC broth microdilution, MRSA QA-11.2; format: cell-based, methicillin-resistant S. aureus; conditions: Staphylococcus aureus, 20 h, read-out: MIC MRSA (QA-11.2)
Procedure: as §2

MRSA (QA-11.6) = assay: MIC broth microdilution, MRSA QA-11.6; format: cell-based, methicillin-resistant S. aureus; conditions: Staphylococcus aureus, read-out: MIC MRSA (QA-11.6)
Procedure: as §2

S. pneumoniae (QA-10/02) = assay: MIC broth microdilution, S. pneumoniae; format: cell-based; conditions: Streptococcus pneumoniae
Procedure: as §2

E. coli (QA-11.8) = assay: MIC broth microdilution, E. coli QA-11.8; format: cell-based
Procedure: as §2

[1] = tested on: S. alachua RDK 030c (QA-1482/04); assay: MIC broth microdilution, S. alachua; format: cell-based
Procedure: as §2

[2] = tested on: C. jejuni RDK 135 (ATCC 33560); assay: MIC broth microdilution, C. jejuni; format: cell-based
Procedure: as §2

[3] = tested on: P. aeruginosa RDK 184 (DSM 939); assay: MIC broth microdilution, P. aeruginosa; format: cell-based
Procedure: as §2

E. coli (QA-11.3) = assay: MIC broth microdilution, E. coli QA-11.3; format: cell-based
Procedure: as §2

[4] = Escherichia coli, ATCC25922, 20 h; E. coli ATCC 25922; read-out: E. coli MIC (converted)
[5] = Escherichia coli, ATCC25922; E. coli ATCC 25922; read-out: E. coli MIC (converted)
[6] = Escherichia coli, ATCC25922; read-out: MIC E. coli (ATCC 25922)
[7] = resistant to cefoxitin, chloramphenicol, clindamycin, linezolid, tetracycline, thiamulin, trimethoprim
[8] = resistant to cefoxitin, gentamicin, sulfamethoxazole, tetracycline
[9] = Escherichia coli, 20 h; read-out: MIC E. coli (QA-11.8)
[10] = Salmonella; read-out: MIC S. alachua RDK 030c (QA-1482/04)
[11] = Campylobacter jejuni, ATCC33560; read-out: MIC C. jejuni RDK 135 (ATCC 33560)
[12] = Pseudomonas aeruginosa, DSM939; read-out: MIC P. aeruginosa RDK 184 (DSM 939)
[13] = Escherichia coli, 20 h; read-out: MIC E. coli (QA-11.3)

Which results are given for COc1ccc2nccc(CCN3CCC(NC(=O)c4cn5cccc(C#N)c5n4)CC3)c2n1 [Compound 7, 8-Cyano-N-(1-(2-(6-methoxy-1,5-naphthyridin-4-yl)ethyl)piperidin-4-yl)imidazo[1,2-a]pyridine-2-carboxamide]?
IC50 (S. aureus Topo IV): > 100 µM; MIC (E. coli (ATCC 25922); [4]): 281 µM; MIC (E. coli (ATCC 25922); Escherichia coli, ATCC25922, read-out: MIC E. coli (ATCC 25922)): > 128 µg/mL; IC50 (E. coli Topo IV): > 100 µM; remaining activity at 10 µM (Human topoisomerase IIα): 90.3 ± 7.56%; MIC (MRSA (QA-11.2)): > 128 µg/mL; MIC (MRSA (QA-11.6)): > 128 µg/mL; MIC (S. pneumoniae (QA-10/02)): 128 µg/mL (≈ 281 µM); MIC (E. coli (QA-11.8); Escherichia coli, 20 h, read-out: MIC E. coli (QA-11.8)): > 128 µg/mL; MIC ([1]; Salmonella, read-out: MIC S. alachua RDK 030c (QA-1482/04)): > 128 µg/mL; MIC ([2]; Campylobacter jejuni, ATCC33560, read-out: MIC C. jejuni RDK 135 (ATCC 33560)): > 128 µg/mL; MIC ([3]; Pseudomonas aeruginosa, DSM939, read-out: MIC P. aeruginosa RDK 184 (DSM 939)): > 128 µg/mL; MIC (E. coli (QA-11.3); Escherichia coli, 20 h, read-out: MIC E. coli (QA-11.3)): > 128 µg/mL

What does the source list for COc1ccc2nccc(CCN3CCC(NCc4ccc(N(C)C)cc4)CC3)c2n1 [Compound 18]?
IC50 (S. aureus Topo IV): > 100 µM; MIC (E. coli (ATCC 25922); [5]): 78.5 µM; MIC (E. coli (ATCC 25922); [6]): 32 µg/mL; IC50 (E. coli Topo IV): > 100 µM; remaining activity at 10 µM (Human topoisomerase IIα): 94.2 ± 1.33%; MIC (MRSA (QA-11.2); [7]): 0.5 µg/mL (≈ 1.19 µM); MIC (MRSA (QA-11.6); [8]): 0.25 µg/mL (≈ 0.596 µM); MIC (S. pneumoniae (QA-10/02)): 0.25 µg/mL (≈ 0.596 µM); MIC (E. coli (QA-11.8); [9]): 8 µg/mL (≈ 19.1 µM); MIC [1, 10]: 128 µg/mL (≈ 305 µM); MIC [2, 11]: 4 µg/mL (≈ 9.53 µM); MIC [3, 12]: > 128 µg/mL; MIC (E. coli (QA-11.3); [13]): 8 µg/mL (≈ 19.1 µM)

How did the IC50 (S. aureus Topo IV) turn out when COc1ccc2nccc(CCN3CCC(NCc4ccccc4)CC3)c2n1 [Compound 11] was run?
The IC50 was > 100 µM.

And the MIC (E. coli (ATCC 25922); [5])?
The MIC was 170 µM.

What about the MIC (E. coli (ATCC 25922); [6]) of the same compound?
Its MIC is 64 µg/mL.

What about the IC50 (E. coli Topo IV) of the same compound?
Its IC50 is 2.04 ± 0.2 µM.

And the “LE Topo IV E. coli” value (E. coli Topo IV)?
The value was 0.28.

What about the remaining activity at 10 µM (Human topoisomerase IIα) of the same compound?
Its remaining activity at 10 µM is 97 ± 9.58%.

What about the MIC (MRSA (QA-11.2); [7]) of the same compound?
Its MIC is 8 µg/mL (≈ 21.2 µM).

And the MIC (MRSA (QA-11.6); [8])?
The MIC was 8 µg/mL (≈ 21.2 µM).

What about the MIC (S. pneumoniae (QA-10/02)) of the same compound?
Its MIC is 2 µg/mL (≈ 5.31 µM).

What about the MIC (E. coli (QA-11.8); [9]) of the same compound?
Its MIC is 64 µg/mL (≈ 170 µM).

What about the MIC [1, 10] of the same compound?
The MIC was > 128 µg/mL.

And the MIC [2, 11]?
The MIC was 32 µg/mL (≈ 85 µM).

What about the MIC [3, 12] of the same compound?
Its MIC is > 128 µg/mL.

And the MIC (E. coli (QA-11.3); [13])?
Its MIC is 32 µg/mL (≈ 85 µM).

Which results are given for COc1ccc2nccc(CCN3CCC(NCc4ccc(C(N)=O)cc4)CC3)c2n1 [Compound 17]?
IC50 (S. aureus Topo IV): > 100 µM; MIC (E. coli (ATCC 25922); [4]): 305 µM; MIC (E. coli (ATCC 25922); [6]): > 128 µg/mL; IC50 (E. coli Topo IV): 1.15 ± 0.03 µM; LE Topo IV E. coli (E. coli Topo IV): 0.26; remaining activity at 10 µM (Human topoisomerase IIα): 97.8 ± 2.21%; MIC (MRSA (QA-11.2); [7]): 8 µg/mL (≈ 19.1 µM); MIC (MRSA (QA-11.6); [8]): 4 µg/mL (≈ 9.53 µM); MIC (S. pneumoniae (QA-10/02)): 16 µg/mL (≈ 38.1 µM); MIC (E. coli (QA-11.8); [9]): > 128 µg/mL; MIC [1, 10]: > 128 µg/mL; MIC [2, 11]: 128 µg/mL (≈ 305 µM); MIC [3, 12]: > 128 µg/mL; MIC (E. coli (QA-11.3); [13]): 128 µg/mL (≈ 305 µM)

Which results are given for C=CCn1cc(CNC2CCN(CCc3ccnc4ccc(OC)nc34)CC2)cn1 [Compound 10, N-((1-Allyl-1H-pyrazol-4-yl)methyl)-1-(2-(6-methoxy-1,5-naphthyridin-4-yl)ethyl)piperidin-4-amine]?
IC50 (S. aureus Topo IV): > 100 µM; MIC (E. coli (ATCC 25922); [5]): 39.4 µM; MIC (E. coli (ATCC 25922); [6]): 16 µg/mL; IC50 (E. coli Topo IV): 0.28 ± 0.01 µM; LE Topo IV E. coli (E. coli Topo IV): 0.30; remaining activity at 10 µM (Human topoisomerase IIα): 95.7 ± 6.42%; MIC (MRSA (QA-11.2); [7]): 4 µg/mL (≈ 9.84 µM); MIC (MRSA (QA-11.6); [8]): 4 µg/mL (≈ 9.84 µM); MIC (S. pneumoniae (QA-10/02)): 1 µg/mL (≈ 2.46 µM); MIC (E. coli (QA-11.8); [9]): 16 µg/mL (≈ 39.4 µM); MIC [1, 10]: 128 µg/mL (≈ 315 µM); MIC [2, 11]: 8 µg/mL (≈ 19.7 µM); MIC [3, 12]: > 128 µg/mL; MIC (E. coli (QA-11.3); [13]): 8 µg/mL (≈ 19.7 µM)
